System: actin
Experiment: polymerization of actin (in vitro test)
Format: cell-based
Conditions: compared to control
From the text: Typically, the selected or purified maltodextrins described herein have the following properties: • a moisturizing and gelling (film-forming) action; • a stimulating action of fibroblasts and keratinocytes proliferation, responsible for the formation of granulation tissue and producers of collagen, elastin, proteoglycans, and other glycoproteins that intervene in the tissue regeneration phase • a skin regenerating action, found with representative in vitro tests such as synthesis of fibronectin, polymerization of actin, expression of enzymes such as Hyaluronan Synthase-2 • a skin protective action following the formation of an epidermal barrier

phosphatidic acid [PA]
polymerization of actin increase: 100%
